Results: patent publication US10350271B2, “Lipidated peptides for lowering blood glucose” (USTAV ORGANICKE CHEMIE A BIOCHEMIE AKADEMIE VED CR, V.V.I., priority 2014, dated 2019)
Blank lines part the entries; values can stand above or below the compound they belong to. Square brackets hold non-standard residues; d marks the D form. Ends that are not written are not given here. Peptide text beside a SMILES is read from it. * marks the point of attachment. Palmitoyl = CCCCCCCCCCCCCCCC(=O)*; Myristoyl = CCCCCCCCCCCCCC(=O)*; Nle = CCCC[C@H](N)C(=O)O

Key:
rat PrRP receptor = target: T1, rat PrRP receptor (Rattus norvegicus, UniProt Q64121); experiment: Competitive binding in RC-4B/C rat pituitary cells (125I-rat PrRP31); conditions: for % of PrRP31, RC-4B/C rat pituitary cells: affinity relative to PrRP31; for Binding affinity / Ki: RC-4B/C cells; for Binding affinity: statements referring to Table 2; for Ki: displacement of 125I-rat PrRP31, read-out: Ki, RC-4B/C rat pituitary cells ^25I-rat PrRP31
T1 construct: host or cells: RC-4B/C rat pituitary cell line
T1 sequence (Q64121 1-370): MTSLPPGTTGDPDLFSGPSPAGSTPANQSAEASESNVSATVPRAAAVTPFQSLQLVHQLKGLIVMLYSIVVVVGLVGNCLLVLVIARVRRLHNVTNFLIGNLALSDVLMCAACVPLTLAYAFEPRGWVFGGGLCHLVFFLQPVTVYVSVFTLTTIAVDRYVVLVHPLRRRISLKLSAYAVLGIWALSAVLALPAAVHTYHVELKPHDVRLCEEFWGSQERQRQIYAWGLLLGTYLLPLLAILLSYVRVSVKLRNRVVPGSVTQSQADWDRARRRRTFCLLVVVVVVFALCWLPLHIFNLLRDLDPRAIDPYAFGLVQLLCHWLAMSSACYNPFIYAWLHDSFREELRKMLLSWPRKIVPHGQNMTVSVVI
In short: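 Displacement of rat 125I-PrRP31 ([…]) by test analogs, 10^−11–10^−4 mol·l^−1, on whole RC-4B/C cells, 60 min RT. Bound counts measured by γ-counter in duplicate, ≥3 repeats, analyzed by nonlinear one-site binding regression.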

C57BL/6 mice = experiment: Food intake in fasted mice after SC injection; type: in vivo; conditions: for Food intake in mice % of saline-treated group: 5 mg/kg SC, 45 min after injection; for Effect on food intake in mice: SC
Experimental: NMRI mice, C57BL/6 mice, and Wistar rats (AnLab, Prague, Czech Republic) were housed in a temperature of 23° C. and a daily cycle of 12 h light and dark (light from 6:00). They were given ad libitum water and a standard chow diet that contained 25, 9 and 66% of calories of protein, fat and carbohydrate respectively. Energy content of the feed was 3.4 kcal/g (St-1, Mlýn Kocanda, Czech Republic). Db/db mice and their controls (C57BL/6 background) were obtained from Taconic (Denmark), housed under the same conditions as described above, and fed by Altromin (Taconic, Denmark). ZDF-Lepr^fa/Crl, diabetic fa/fa male rats were obtained from Charles River (France), housed under same conditions as described above, and fed with a Purina 5008 diet (IPS Product Supplies Limited, UK). All experiments followed the ethical guidelines for animal experiments and the law of the Czech Republic Nr. 246/1992.
In experiments with C57BL/6 mice or Wistar rats, food intake was measured with overnight fasted animals in individual cages. Food was withdrawn 17 hours prior to injection of lipidated analog of prolactin releasing peptide (PrRP); free access to water was maintained. The administration of either saline, PrRP, or lipidated analogs was performed by SC injection at doses of 1-10 mg/kg (which corresponded to a volume of 0.2 ml/mouse and 0.1 ml/100 g weight of rat). Fifteen minutes after the lipidated analog of prolactin releasing peptide (PrRP) administration, the mice were given pre-weighed food. The food was then weighed every 30 minutes for 5-10 hours. The administration of each dose was performed at least twice, and each group of mice consisted of at least 6 mice.

Compound: CCCCCCCCCCCCCC(=O)N[C@@H](CO)C(=O)N[C@@H](CCCNC(=N)N)C(=O)N[C@@H](C)C(=O)N[C@@H](Cc1c[nH]cn1)C(=O)N[C@@H](CCC(N)=O)C(=O)N[C@@H](Cc1c[nH]cn1)C(=O)N[C@@H](CO)C(=O)N[C@@H](CCSC)C(=O)N[C@@H](CCC(=O)O)C(=O)N[C@H](C(=O)N[C@@H](CCCNC(=N)N)C(=O)N[C@H](C(=O)N1CCC[C@H]1C(=O)N[C@@H](CC(=O)O)C(=O)N[C@H](C(=O)N[C@@H](CC(N)=O)C(=O)N1CCC[C@H]1C(=O)N[C@@H](C)C(=O)N[C@@H](Cc1c[nH]c2ccccc12)C(=O)N[C@@H](Cc1ccc(O)cc1)C(=O)N[C@H](C(=O)NCC(=O)N[C@@H](CCCNC(=N)N)C(=O)NCC(=O)N[C@H](C(=O)N[C@@H](CCCNC(=N)N)C(=O)N1CCC[C@H]1C(=O)N[C@H](C(=O)NCC(=O)N[C@@H](CCCNC(=N)N)C(=O)N[C@@H](Cc1ccccc1)C(N)=O)C(C)C)[C@@H](C)CC)[C@@H](C)O)[C@@H](C)CC)[C@@H](C)O)[C@@H](C)O [Analog 46] (Myristoyl-SRAHQHSMETRTPDINPAWYTGRGIRPVGRF-NH2)
% of PrRP31, RC-4B/C rat pituitary cells (rat PrRP receptor): 657% | Food intake in mice % of saline-treated group (C57BL/6 mice): 20%

Compound: CCCC[C@H](NC(=O)CNC(=O)[C@H](CCCNC(=N)N)NC(=O)[C@@H]1CCCN1C(=O)[C@H](Cc1ccc(O)cc1)NC(=O)[C@H](Cc1c[nH]c2ccccc12)NC(=O)[C@H](Cc1c[nH]cn1)NC(=O)[C@@H](NC(=O)[C@H](CC(=O)O)NC(=O)[C@H](C)NC(=O)[C@@H]1CCCN1C(=O)[C@H](CCCNC(=N)N)NC(=O)[C@H](CCC(N)=O)NC(=O)[C@H](Cc1c[nH]cn1)NC(=O)[C@@H](N)CO)[C@@H](C)O)C(=O)N[C@@H](Cc1ccccc1)C(=O)N1CCC[C@H]1C(=O)N[C@H](C(=O)N[C@H](C(=O)NCC(=O)N[C@@H](CCCNC(=N)N)C(=O)N[C@H](C(=O)N[C@H](C(=O)N[C@@H](C)C(=O)N[C@@H](CCCNC(=N)N)C(=O)N[C@@H](CC(N)=O)C(=O)NCC(=O)N[C@@H](CCC(=O)O)C(=O)N[C@H](C(=O)N[C@@H](CO)C(=O)N[C@@H](CCCNC(=N)N)C(N)=O)C(C)C)[C@@H](C)O)[C@@H](C)CC)[C@@H](C)CC)[C@@H](C)O [Analog 19] (H-SHQRPADTHWYPRG[Nle]FPTIGRITARNGEVSR-NH2)
Binding affinity (rat PrRP receptor): very low binding affinity | Effect on food intake in mice (C57BL/6 mice): no effect

Compound: CCCCCCCCCCCCCC(=O)N[C@@H](CO)C(=O)N[C@@H](Cc1c[nH]cn1)C(=O)N[C@@H](CCC(N)=O)C(=O)N[C@@H](CCCNC(=N)N)C(=O)N1CCC[C@H]1C(=O)N[C@@H](C)C(=O)N[C@@H](CC(=O)O)C(=O)N[C@H](C(=O)N[C@@H](Cc1c[nH]cn1)C(=O)N[C@@H](Cc1c[nH]c2ccccc12)C(=O)N[C@@H](Cc1ccc(O)cc1)C(=O)N1CCC[C@H]1C(=O)N[C@@H](CCCNC(=N)N)C(=O)NCC(=O)N[C@@H](CCCC)C(=O)N[C@@H](Cc1ccccc1)C(=O)N1CCC[C@H]1C(=O)N[C@H](C(=O)N[C@H](C(=O)NCC(=O)N[C@@H](CCCNC(=N)N)C(=O)N[C@H](C(=O)N[C@H](C(=O)N[C@@H](C)C(=O)N[C@@H](CCCNC(=N)N)C(=O)N[C@@H](CC(N)=O)C(=O)NCC(=O)N[C@@H](CCC(=O)O)C(=O)N[C@H](C(=O)N[C@@H](CO)C(=O)N[C@@H](CCCNC(=N)N)C(N)=O)C(C)C)[C@@H](C)O)[C@@H](C)CC)[C@@H](C)CC)[C@@H](C)O)[C@@H](C)O [Analog 20] (Myristoyl-SHQRPADTHWYPRG[Nle]FPTIGRITARNGEVSR-NH2)
Binding affinity (rat PrRP receptor): very low binding affinity | Effect on food intake in mice (C57BL/6 mice): no effect

Compound: CCCCCCCCCCCCCC(=O)N[C@H](Cc1ccccc1)C(=O)N[C@H](CCCNC(=N)N)C(=O)NCC(=O)N[C@H](C(=O)N1CCC[C@H]1C(=O)N[C@@H](CCCNC(=N)N)C(=O)N[C@H](C(=O)NCC(=O)N[C@@H](CCCNC(=N)N)C(=O)NCC(=O)N[C@H](C(=O)N[C@@H](Cc1ccc(O)cc1)C(=O)N[C@@H](Cc1c[nH]c2ccccc12)C(=O)N[C@@H](C)C(=O)N1CCC[C@H]1C(=O)N[C@@H](CC(N)=O)C(=O)N[C@H](C(=O)N[C@@H](CC(=O)O)C(=O)N1CCC[C@H]1C(=O)N[C@H](C(N)=O)[C@@H](C)O)[C@@H](C)CC)[C@@H](C)O)[C@@H](C)CC)C(C)C [Analog 26] (Myristoyl-[dF][dR]GVPRIGRGTYWAPNIDPT-NH2)
Binding affinity (rat PrRP receptor): very low binding affinity | % of PrRP31, RC-4B/C rat pituitary cells (rat PrRP receptor): 1.4% | Food intake in mice % of saline-treated group (C57BL/6 mice): 100% | Effect on food intake in mice (C57BL/6 mice): no effect

Second part, led by results:

% of PrRP31, RC-4B/C rat pituitary cells (rat PrRP receptor): 1202%
Compound: CCCCCCCCCCCCCCCC(=O)N[C@@H](CO)C(=O)N[C@@H](CCCNC(=N)N)C(=O)N[C@@H](C)C(=O)N[C@@H](Cc1c[nH]cn1)C(=O)N[C@@H](CCC(N)=O)C(=O)N[C@@H](Cc1c[nH]cn1)C(=O)N[C@@H](CO)C(=O)N[C@@H](CCSC)C(=O)N[C@@H](CCC(=O)O)C(=O)N[C@H](C(=O)N[C@@H](CCCNC(=N)N)C(=O)N[C@H](C(=O)N1CCC[C@H]1C(=O)N[C@@H](CC(=O)O)C(=O)N[C@H](C(=O)N[C@@H](CC(N)=O)C(=O)N1CCC[C@H]1C(=O)N[C@@H](C)C(=O)N[C@@H](Cc1c[nH]c2ccccc12)C(=O)N[C@@H](Cc1ccc(O)cc1)C(=O)N[C@H](C(=O)NCC(=O)N[C@@H](CCCNC(=N)N)C(=O)NCC(=O)N[C@H](C(=O)N[C@@H](CCCNC(=N)N)C(=O)N1CCC[C@H]1C(=O)N[C@H](C(=O)NCC(=O)N[C@@H](CCCNC(=N)N)C(=O)N[C@@H](Cc1ccccc1)C(N)=O)C(C)C)[C@@H](C)CC)[C@@H](C)O)[C@@H](C)CC)[C@@H](C)O)[C@@H](C)O [Analog 47] (Palmitoyl-SRAHQHSMETRTPDINPAWYTGRGIRPVGRF-NH2)
Food intake in mice % of saline-treated group (C57BL/6 mice): 2%

Ki (rat PrRP receptor): 1.78 ± 0.46 nM | % of PrRP31, RC-4B/C rat pituitary cells (rat PrRP receptor): 277%
Compound: TPDINPAWYASRGIRPVGRF-NH2 [Human PrRP20, reference compound]
Food intake in mice % of saline-treated group (C57BL/6 mice): 100%

Ki (rat PrRP receptor): 2.38 ± 0.19 nM | % of PrRP31, RC-4B/C rat pituitary cells (rat PrRP receptor): 207%
Compound: CC[C@H](C)[C@H](NC(=O)CNC(=O)[C@H](CCCNC(=N)N)NC(=O)[C@H](CO)NC(=O)[C@H](C)NC(=O)[C@H](Cc1ccc(O)cc1)NC(=O)[C@H](Cc1c[nH]c2ccccc12)NC(=O)[C@H](C)NC(=O)[C@@H]1CCCN1C(=O)[C@H](CC(N)=O)NC(=O)[C@@H](NC(=O)[C@H](CC(=O)O)NC(=O)[C@@H]1CCCN1C(=O)[C@@H](NC(=O)[C@H](CCCNC(=N)N)NC(=O)[C@@H](NC(=O)[C@H](CCC(=O)O)NC(=O)[C@H](CCSC)NC(=O)[C@H](CO)NC(=O)[C@H](Cc1c[nH]cn1)NC(=O)[C@H](CCCNC(=N)N)NC(=O)[C@H](Cc1c[nH]cn1)NC(=O)[C@@H](NC(=O)[C@H](CCCNC(=N)N)NC(=O)[C@@H](N)CO)[C@@H](C)O)[C@@H](C)CC)[C@@H](C)O)[C@@H](C)CC)C(=O)N[C@@H](CCCNC(=N)N)C(=O)N1CCC[C@H]1C(=O)N[C@H](C(=O)NCC(=O)N[C@@H](CCCNC(=N)N)C(=O)N[C@@H](Cc1ccccc1)C(N)=O)C(C)C [Human PrRP31, reference compound]
Food intake in mice % of saline-treated group (C57BL/6 mice): 100%
